Tests used:
[1] = molecular target: 3',5'-cyclic-AMP phosphodiesterase 4B (Homo sapiens, UniProt Q07343); test: Inhibition of human PDE4B1 incubated for 10 mins using cAMP and [3H]cAMP substrates
[2] = molecular target: 3',5'-cyclic-AMP phosphodiesterase 4D (Homo sapiens, UniProt Q08499); test: Inhibition of human PDE4D3 incubated for 10 mins using cAMP and [3H]cAMP substrates
Homo sapiens = species on record: Homo sapiens; test: Selectivity ratio, ratio of IC50 for human PDE4D3 to IC50 for human PDE4B1
Mustela putorius furo [3] = test: Toxicity in ferret assessed as induction of emesis at 10 mg/kg, po measured 6 hrs post dose; type: organism-based; design: dose 10 mg/kg, route oral; conditions: in vivo
Mus musculus = test: Inhibition of LPS-induced TNFalpha production in po dosed mouse; type: functional; conditions: read-out: ID50 (the source's name)
Mustela putorius furo [4] = test: Inhibition of […] in ferret assessed as inhibition of LPS-induced change in number of neutrophils in lung lavage at 10 mg/kg, po; type: functional
Mustela putorius furo [5] = test: Toxicity in ferret assessed as induction of emesis at 0.3 mg/kg, po measured 6 hrs post dose; type: organism-based; design: dose 0.3 mg/kg, route oral; conditions: in vivo
Mustela putorius furo [6] = test: Toxicity in ferret assessed as induction of emesis at 1 mg/kg, po measured 6 hrs post dose; type: organism-based; design: dose 1 mg/kg, route oral; conditions: in vivo
[7] = Oral bioavailability in mouse; type: ADME, organism-based; conditions: in vivo
Cytochrome P450 1A2 = molecular target: T1, Cytochrome P450 1A2 (Homo sapiens, UniProt P05177); test: Inhibition of CYP1A2; type: ADME
T1 sequence (P05177 whole entry): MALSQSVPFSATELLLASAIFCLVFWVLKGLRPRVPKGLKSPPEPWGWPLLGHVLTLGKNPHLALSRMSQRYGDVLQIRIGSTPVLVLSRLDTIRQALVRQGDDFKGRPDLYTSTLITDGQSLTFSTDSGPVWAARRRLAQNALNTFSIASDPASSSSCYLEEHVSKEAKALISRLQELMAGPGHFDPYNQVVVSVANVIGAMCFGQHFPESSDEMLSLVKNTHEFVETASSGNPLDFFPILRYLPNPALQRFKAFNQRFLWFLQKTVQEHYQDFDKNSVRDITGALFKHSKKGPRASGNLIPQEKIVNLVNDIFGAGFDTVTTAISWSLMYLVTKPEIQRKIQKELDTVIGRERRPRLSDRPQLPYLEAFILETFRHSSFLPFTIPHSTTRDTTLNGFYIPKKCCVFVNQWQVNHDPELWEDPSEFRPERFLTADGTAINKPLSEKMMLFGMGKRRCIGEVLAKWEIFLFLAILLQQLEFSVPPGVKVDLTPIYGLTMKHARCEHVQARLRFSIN

Cytochrome P450 3A4 = Cytochrome P450 3A4 (Homo sapiens, UniProt P08684); test: Inhibition of CYP3A4; type: ADME
Cytochrome P450 2C9 = Cytochrome P450 2C9 (Homo sapiens, UniProt P11712); test: Inhibition of CYP2C9; type: ADME
Cytochrome P450 2D6 = Cytochrome P450 2D6 (Homo sapiens, UniProt P10635); test: Inhibition of CYP2D6; type: ADME
[8] = AUC (0 to infinity) in mouse at 2 mg/kg, po; type: ADME, organism-based; design: time infinity, dose 2 mg/kg, route oral; conditions: plasma
[9] = Cmax in mouse at 2 mg/kg, po; type: ADME, organism-based; design: dose 2 mg/kg, route oral; conditions: in vivo
[10] = AUC (0 to infinity) in ferret at 2 mg/kg, po; type: ADME, organism-based, Mustela putorius furo; design: time infinity, dose 2 mg/kg, route oral; conditions: plasma
[11] = Cmax in ferret at 2 mg/kg, po; type: ADME, organism-based, Mustela putorius furo; design: dose 2 mg/kg, route oral; conditions: in vivo
Mustela putorius furo [12] = test: Toxicity in ferret assessed as induction of emesis at 100 mg/kg, po measured 6 hrs post dose; type: organism-based; design: dose 100 mg/kg, route oral; conditions: in vivo
Mustela putorius furo [13] = test: Toxicity in ferret assessed as induction of emesis at 200 mg/kg, po measured 6 hrs post dose; type: organism-based; design: dose 200 mg/kg, route oral; conditions: in vivo
[14] = Inhibition of PDE1
[15] = Inhibition of PDE3
[16] = molecular target: cGMP-specific 3',5'-cyclic phosphodiesterase (Homo sapiens, UniProt O76074); test: Inhibition of PDE5
[17] = Inhibition of PDE6
Mustela putorius furo [18] = test: Inhibition of […] in ferret assessed as inhibition of LPS-induced change in number of neutrophils in lung lavage at 12.5 mg/kg, po; type: functional
Mustela putorius furo [19] = test: Inhibition of […] in ferret assessed as inhibition of LPS-induced change in number of neutrophils in lung lavage at 25 mg/kg, po; type: functional

Sequence of 3',5'-cyclic-AMP phosphodiesterase 4B (Q07343 whole entry): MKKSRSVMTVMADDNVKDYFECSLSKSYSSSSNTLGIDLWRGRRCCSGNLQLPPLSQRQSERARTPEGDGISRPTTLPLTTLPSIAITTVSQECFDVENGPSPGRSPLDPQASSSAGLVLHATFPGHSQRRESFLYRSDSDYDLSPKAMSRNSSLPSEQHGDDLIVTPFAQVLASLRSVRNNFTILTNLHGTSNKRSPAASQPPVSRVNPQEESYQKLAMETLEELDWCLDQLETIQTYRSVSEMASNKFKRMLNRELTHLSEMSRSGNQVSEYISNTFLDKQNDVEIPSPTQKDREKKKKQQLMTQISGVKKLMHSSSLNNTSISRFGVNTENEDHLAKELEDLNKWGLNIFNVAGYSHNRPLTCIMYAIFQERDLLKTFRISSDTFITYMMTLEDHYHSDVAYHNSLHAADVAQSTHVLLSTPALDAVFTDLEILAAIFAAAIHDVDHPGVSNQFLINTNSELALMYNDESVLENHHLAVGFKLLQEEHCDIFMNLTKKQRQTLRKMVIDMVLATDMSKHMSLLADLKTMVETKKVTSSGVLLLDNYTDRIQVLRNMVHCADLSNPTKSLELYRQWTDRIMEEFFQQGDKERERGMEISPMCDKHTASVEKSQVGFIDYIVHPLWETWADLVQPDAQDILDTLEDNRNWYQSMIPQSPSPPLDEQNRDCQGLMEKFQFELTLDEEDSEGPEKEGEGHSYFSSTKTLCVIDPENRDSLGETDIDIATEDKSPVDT
Sequence of 3',5'-cyclic-AMP phosphodiesterase 4D (Q08499 whole entry): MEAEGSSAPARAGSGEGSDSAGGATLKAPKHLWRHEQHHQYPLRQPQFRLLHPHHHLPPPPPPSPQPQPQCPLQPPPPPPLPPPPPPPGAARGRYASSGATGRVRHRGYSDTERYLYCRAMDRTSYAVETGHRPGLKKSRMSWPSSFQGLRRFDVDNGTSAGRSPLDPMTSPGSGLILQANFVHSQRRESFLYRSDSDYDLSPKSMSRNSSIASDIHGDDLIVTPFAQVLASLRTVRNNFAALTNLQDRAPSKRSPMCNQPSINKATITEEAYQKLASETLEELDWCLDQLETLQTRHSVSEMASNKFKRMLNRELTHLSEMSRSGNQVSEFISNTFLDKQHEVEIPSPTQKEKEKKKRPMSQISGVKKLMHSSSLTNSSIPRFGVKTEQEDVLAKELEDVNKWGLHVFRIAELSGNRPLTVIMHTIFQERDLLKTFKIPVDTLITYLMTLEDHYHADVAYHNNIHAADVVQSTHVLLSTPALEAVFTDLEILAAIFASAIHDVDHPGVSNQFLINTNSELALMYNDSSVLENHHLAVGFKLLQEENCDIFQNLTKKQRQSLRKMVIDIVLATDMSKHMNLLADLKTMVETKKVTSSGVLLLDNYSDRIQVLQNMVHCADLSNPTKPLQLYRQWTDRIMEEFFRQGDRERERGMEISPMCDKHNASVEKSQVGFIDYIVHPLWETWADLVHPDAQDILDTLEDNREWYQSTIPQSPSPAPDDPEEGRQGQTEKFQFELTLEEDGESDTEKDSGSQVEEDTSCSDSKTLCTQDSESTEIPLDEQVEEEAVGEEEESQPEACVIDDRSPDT
Sequence of Cytochrome P450 2C9 (P11712 whole entry): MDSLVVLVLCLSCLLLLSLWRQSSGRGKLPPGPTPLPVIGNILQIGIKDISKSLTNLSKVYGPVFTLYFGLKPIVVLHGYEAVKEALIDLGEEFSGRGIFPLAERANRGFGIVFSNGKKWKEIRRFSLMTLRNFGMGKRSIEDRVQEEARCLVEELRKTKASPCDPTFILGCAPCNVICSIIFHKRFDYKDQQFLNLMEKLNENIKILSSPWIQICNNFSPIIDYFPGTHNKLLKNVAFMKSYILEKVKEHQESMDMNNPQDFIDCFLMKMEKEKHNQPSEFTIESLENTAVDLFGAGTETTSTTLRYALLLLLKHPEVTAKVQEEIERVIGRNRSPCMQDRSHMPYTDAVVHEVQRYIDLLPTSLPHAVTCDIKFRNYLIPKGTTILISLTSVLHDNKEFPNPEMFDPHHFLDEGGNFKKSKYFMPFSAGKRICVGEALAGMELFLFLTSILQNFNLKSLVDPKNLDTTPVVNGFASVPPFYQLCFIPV
Sequence of Cytochrome P450 3A4 (P08684 whole entry): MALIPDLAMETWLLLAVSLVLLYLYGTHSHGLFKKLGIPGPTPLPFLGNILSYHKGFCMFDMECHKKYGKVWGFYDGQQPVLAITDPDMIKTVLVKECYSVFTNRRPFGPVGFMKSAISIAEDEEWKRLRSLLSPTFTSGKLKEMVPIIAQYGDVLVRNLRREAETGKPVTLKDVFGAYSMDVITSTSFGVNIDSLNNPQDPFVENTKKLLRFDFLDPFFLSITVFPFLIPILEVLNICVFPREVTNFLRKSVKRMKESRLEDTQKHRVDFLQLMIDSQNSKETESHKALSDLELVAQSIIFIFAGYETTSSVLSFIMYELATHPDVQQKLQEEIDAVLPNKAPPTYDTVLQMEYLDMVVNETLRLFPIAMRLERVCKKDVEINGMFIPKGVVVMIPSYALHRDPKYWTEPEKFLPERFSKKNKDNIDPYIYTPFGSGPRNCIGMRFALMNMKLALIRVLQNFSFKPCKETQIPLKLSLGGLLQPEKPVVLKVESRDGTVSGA
Sequence of Cytochrome P450 2D6 (P10635 whole entry): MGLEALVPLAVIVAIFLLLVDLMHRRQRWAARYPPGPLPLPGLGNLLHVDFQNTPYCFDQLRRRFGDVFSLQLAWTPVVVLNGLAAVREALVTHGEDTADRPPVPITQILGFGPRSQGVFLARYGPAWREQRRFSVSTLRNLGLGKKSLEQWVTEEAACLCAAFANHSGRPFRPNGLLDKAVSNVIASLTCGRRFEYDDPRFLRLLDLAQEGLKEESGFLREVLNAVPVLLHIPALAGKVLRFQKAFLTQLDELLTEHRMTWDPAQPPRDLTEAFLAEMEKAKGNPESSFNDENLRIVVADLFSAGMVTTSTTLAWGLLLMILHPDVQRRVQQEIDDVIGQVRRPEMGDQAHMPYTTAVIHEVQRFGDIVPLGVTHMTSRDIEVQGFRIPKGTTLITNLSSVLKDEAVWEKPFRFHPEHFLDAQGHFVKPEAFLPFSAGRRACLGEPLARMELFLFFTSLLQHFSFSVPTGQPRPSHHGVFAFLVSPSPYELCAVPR

| Compound | IC50 [1] [nM] | IC50 [2] [nM] | Ratio IC50 (Homo sapiens) | also measured |
| --- | --- | --- | --- | --- |
| Cc1nc(-c2ccccc2)nc(Nc2ccc(C(=O)O)cc2)c1C | 430 | 3400 | 7.9 | – |
| Cc1nc(-c2ccccc2)nc(Nc2ccc(C(=O)O)cc2)c1C=O | 300 | 1500 | 5.2 | – |
| Cc1nc(-c2ccccc2)nc(Nc2ccc(C(=O)O)cc2)c1Cc1ccccc1 | > 1000 | – | – | – |
| Cc1nc(-c2ccccc2)nc(Nc2ccc(C(=O)O)cc2)c1C(C)C | > 1000 | – | – | – |
| CCc1c(C)nc(-c2cc(Br)c(C)s2)nc1Nc1ccc(CC(=O)O)cc1 | 6.8 | 2900 | 420 | – |
| COc1ccc([C@]2(C#N)CC[C@@H](C(=O)O)CC2)cc1OC1CCCC1 [CILOMILAST] | – | – | – | Activity (Mustela putorius furo [3]): Toxic; ED50 (Mus musculus): 2.2 mg/kg; inhibition in vivo at 10 mg/kg (Mustela putorius furo [4]): 35%; Activity (Mustela putorius furo [5]): Non-toxic; Activity (Mustela putorius furo [6]): Toxic |
| C=CCc1c(Nc2ccc(C(=O)O)cc2)nc(-c2ccccc2)nc1C(C)C | > 1000 | – | – | – |
| CCCCc1c(C)nc(-c2ccccc2)nc1Nc1ccc(C(=O)O)cc1 | > 1000 | – | – | – |
| CCc1c(C)nc(-c2ccc(F)s2)nc1Nc1ccc(CC(=O)O)cc1F | 15 | 3100 | 205 | bioavailability [7]: 73%; IC50 (Cytochrome P450 1A2): > 10000 nM; IC50 (Cytochrome P450 3A4): > 10000 nM; IC50 (Cytochrome P450 2C9): > 10000 nM; IC50 (Cytochrome P450 2D6): > 10000 nM; AUC(0-inf) [8]: 21900 ng·h/mL; Cmax [9]: 10900 ng/mL; AUC(0-inf) [10]: 341000 ng·h/mL; Cmax [11]: 14800 ng/mL |
| C=CCc1c(C)nc(-c2ccccc2)nc1Nc1ccc(CC(=O)O)cc1 | 1800 | > 10000 | – | – |
| Cc1nc(-c2ccccc2)nc(Nc2ccc(C(=O)O)cc2)c1CN | > 1000 | – | – | – |
| Cc1nc(-c2ccccc2)nc(Nc2ccc(C(=O)O)cc2)c1CO | 540 | 8000 | 15 | – |
| CCCc1c(C)nc(-c2ccccc2)nc1Nc1ccc(C(=O)O)cc1 | 1300 | 7600 | 5.6 | – |
| C=CCc1c(CC)nc(-c2ccccc2)nc1Nc1ccc(C(=O)O)cc1 | 34 | 82 | 2.4 | – |
| CCc1c(C)nc(-c2ccccc2)nc1Nc1ccc(C(=O)O)cc1 | 140 | 2100 | 15 | – |
| Cc1nc(-c2ccccc2)nc(Nc2ccc(C(=O)O)cc2)c1C#N | 120 | 1500 | 12 | – |
| CCc1c(C)nc(-c2ccc(SC)s2)nc1Nc1ccc(CC(=O)O)cc1 | 34 | 1500 | 43 | – |
| C=CCc1c(CCC)nc(-c2ccccc2)nc1Nc1ccc(C(=O)O)cc1 | 690 | 2400 | 3.4 | – |

Second part, led by results:

| IC50 [1] [nM] | IC50 [2] [nM] | Ratio IC50 (Homo sapiens) | Compound | also measured |
| --- | --- | --- | --- | --- |
| 150 | 1300 | 8.6 | C=CCc1c(C)nc(-c2ccc(C)s2)nc1Nc1ccc(C(=O)O)cc1 | – |
| 190 | 1900 | 9.7 | C=CCc1c(C)nc(-c2ccccc2)nc1Nc1ccc(C(=O)O)cc1 | – |
| 190 | 5300 | 29 | C=CCc1c(C)nc(-c2ccc(OC)s2)nc1Nc1ccc(CC(=O)O)cc1 | – |
| 120 | 1300 | 11 | C=CCc1c(C)nc(-c2cccs2)nc1Nc1ccc(C(=O)O)cc1 | – |
| 220 | 2000 | 8.9 | C=CCc1c(C)nc(-c2ccc(OC)cc2)nc1Nc1ccc(C(=O)O)cc1 | – |
| 78 | 760 | 9.8 | C=CCc1c(C)nc(-c2ccc(OC)s2)nc1Nc1ccc(C(=O)O)cc1 | – |
| 220 | 2800 | 13 | C=CCc1c(C)nc(-c2ccc(C)cc2)nc1Nc1ccc(C(=O)O)cc1 | – |
| 600 | 4800 | 8 | C=CCc1c(C)nc(-c2ccc(OC)cc2)nc1Nc1ccc(CC(=O)O)cc1 | – |
| 860 | 3000 | 3.5 | C=CCc1c(C)nc(-c2cnccn2)nc1Nc1ccc(C(=O)O)cc1 | – |
| 3700 | 15000 | 4.1 | C=CCc1c(C)nc(-c2ccccn2)nc1Nc1ccc(C(=O)O)cc1 | – |
| 19 | 1600 | 87 | CCc1c(C)nc(-c2ccc(Br)s2)nc1Nc1ccc(CC(=O)O)cc1 | – |
| 210 | 1500 | 6.9 | C=CCc1c(C)nc(-c2cccc(C)c2)nc1Nc1ccc(C(=O)O)cc1 | – |
| 68 | 990 | 15 | C=CCc1c(C)nc(-c2ccsc2)nc1Nc1ccc(C(=O)O)cc1 | – |
| 1200 | 9900 | 8 | C=CCc1c(C)nc(-c2cccc(C)c2)nc1Nc1ccc(CC(=O)O)cc1 | – |
| 940 | 11000 | 12 | C=CCc1c(C)nc(-c2ccc(C)cc2)nc1Nc1ccc(CC(=O)O)cc1 | – |
| 15 | 1700 | 114 | CCc1c(C)nc(-c2ccc(Cl)s2)nc1Nc1ccc(CC(=O)O)cc1 | Activity (Mustela putorius furo [12]): Non-toxic; Activity (Mustela putorius furo [13]): Toxic; IC50 [14]: > 2000 nM; IC50 [15]: > 2000 nM; IC50 [16]: > 2000 nM; IC50 [17]: > 2000 nM; bioavailability [7]: 85%; IC50 (Cytochrome P450 1A2): > 10000 nM; IC50 (Cytochrome P450 3A4): > 10000 nM; IC50 (Cytochrome P450 2C9): > 10000 nM; IC50 (Cytochrome P450 2D6): > 10000 nM; AUC(0-inf) [8]: 52300 ng·h/mL; Cmax [9]: 8700 ng/mL; AUC(0-inf) [10]: 33500 ng·h/mL; Cmax [11]: 4500 ng/mL; ED50 (Mus musculus): 14 mg/kg; inhibition in vivo at 12.5 mg/kg (Mustela putorius furo [18]): 44%; inhibition in vivo at 25 mg/kg (Mustela putorius furo [19]): 46% |
| 320 | 8800 | 28 | C=CCc1c(C)nc(-c2ccc(C)s2)nc1Nc1ccc(CC(=O)O)cc1 | – |
| 2800 | 12000 | 4.2 | C=CCc1c(C)nc(-c2csc(C)n2)nc1Nc1ccc(C(=O)O)cc1 | – |
